The values that follow come from patent US20250268903A1, “RXFP1 AGONISTS” (BRISTOL-MYERS SQUIBB COMPANY, priority 2021, published 2025).

The term EC50 denotes the concentration giving half of the maximal effect. Read a low EC50 as a more potent agent.

This experiment deals with T1, human RXFP1 (Homo sapiens, UniProt Q9HBX9).
T1 construct: expressed in transfected cells
T1 sequence (Q9HBX9 1-757): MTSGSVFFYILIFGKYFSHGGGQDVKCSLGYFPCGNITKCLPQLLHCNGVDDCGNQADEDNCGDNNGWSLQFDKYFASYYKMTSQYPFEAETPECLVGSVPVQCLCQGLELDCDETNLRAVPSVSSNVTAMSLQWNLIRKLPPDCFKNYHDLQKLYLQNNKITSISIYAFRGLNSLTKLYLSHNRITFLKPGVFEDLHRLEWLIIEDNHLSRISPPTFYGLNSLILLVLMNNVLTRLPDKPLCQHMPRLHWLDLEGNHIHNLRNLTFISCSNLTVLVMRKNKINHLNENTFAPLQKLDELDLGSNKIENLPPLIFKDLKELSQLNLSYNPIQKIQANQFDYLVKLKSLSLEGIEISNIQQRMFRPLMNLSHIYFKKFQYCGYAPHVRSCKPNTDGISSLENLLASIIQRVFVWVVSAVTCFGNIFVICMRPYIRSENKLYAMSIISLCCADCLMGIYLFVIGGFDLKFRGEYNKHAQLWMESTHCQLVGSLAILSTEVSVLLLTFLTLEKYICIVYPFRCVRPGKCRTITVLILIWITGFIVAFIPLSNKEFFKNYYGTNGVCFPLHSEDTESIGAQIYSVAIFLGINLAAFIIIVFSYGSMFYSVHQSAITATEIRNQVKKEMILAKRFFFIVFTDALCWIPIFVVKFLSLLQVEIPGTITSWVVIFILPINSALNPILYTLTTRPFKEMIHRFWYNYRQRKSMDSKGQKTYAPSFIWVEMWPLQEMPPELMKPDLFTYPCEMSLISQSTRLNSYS
In words: hRXFP1 HEK293 cAMP assay (HTRF). Type of experiment: cell-based. The settings on record: HEK293 cells stably expressing human RXFP1, 30 min at room temperature. The method, boiled down: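 HEK293 cells stably expressing human RXFP1 (1500 cells/well) in HBSS/20 mM HEPES/0.05% BSA/0.5 mM IBMX. Compounds were tested at 0.010 nM–50 μM final (2% DMSO) for 30 min at room temperature. cAMP was measured by HTRF and values derived by 4-parameter logistic fit.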
(Changes in cAMP serve as a functional read-out for many G protein-coupled receptors.)
Compound `COc1ccc(C2CC2C(=O)N2CCC(O)CC2)cc1C(=O)N[C@H]1[C@@H](C(=O)Nc2ccc(F)c(C(F)(F)F)c2)[C@H]2CC[C@@H]1/C2=C\C1CC1` (single isomer, unassigned) [Example 321] registered an EC50 of 28.5 nM.
In turn, `COc1ccc(/C=C/C(=O)N2CCCC2)cc1C(=O)N[C@H]1[C@@H](C(=O)Nc2ccc(F)c(C(F)(F)F)c2)[C@H]2CC[C@@H]1/C2=C\C(F)(F)F` [Example 303, (1R,2S,3R,4R,7Z)-N-[4-fluoro-3-(trifluoromethyl)phenyl]-3-{2-methoxy-5-[(1E)-3-oxo-3-(pyrrolidin-1-yl)prop-1-en-1-yl]benzamido}-7-(2,2,2-trifluoroethylidene) bicyclo[2.2.1] heptane-2-carboxamide] returned a half-maximal effective concentration (EC50) of 77.9 nM.
With `COc1ccc(C2CCCCC2O)cc1C(=O)N[C@@H]1C2CCC(/C2=C/C(F)(F)F)[C@@H]1C(=O)Nc1ccc(F)c(C(F)(F)F)c1` (mixture of isomers) [Example 59] the figure was 1270 nM; with `COc1ccc(CCCNC[C@@H](O)C(F)(F)F)cc1C(=O)N[C@@H]1C2CCC(/C2=C/C(F)(F)F)[C@@H]1C(=O)Nc1ccc(F)c(C(F)(F)F)c1` (stereo partly drawn) [Example 119, (2S,3R,7Z)-N-[4-fluoro-3-(trifluoromethyl)phe-nyl]-3-[2-methoxy-5-(3-{[(2R)-3,3,3-trifluoro-2-hydroxypropyl]amino}propyl)benzamido]-7-(2,2,2-trifluoroethylidene)bi-cyclo[2.2.1]heptane-2-carboxamide], 1800 nM; with `COc1ccc(CCC(C)(C)O)cc1C(=O)N[C@@H]1C2CCC(/C2=C/C(F)(F)F)[C@@H]1C(=O)Nc1ccc(F)c(C(F)(F)F)c1` (stereo partly drawn) [Example 82], 125 nM.
For `CNc1ccc(CCCO)cc1C(=O)N[C@H]1[C@@H](C(=O)Nc2ccc(F)c(C(F)(F)F)c2)[C@H]2CC[C@@H]1/C2=C\C(F)(F)F` [Example 11, (1R,2S,3R,4R,Z)—N-(4-fluoro-3-(trifluoromethyl)phenyl)-3-(5-(3-hydroxypropyl)-2-(methylamino)benzamido)-7-(2,2,2-trifluoroethylidene) bicyclo[2.2.1]heptane-2-carboxamide] the value was 4710 nM.
With `COc1ccc(CC[C@@H](C)O)cc1C(=O)N[C@@H]1C2CCC(/C2=C/C(F)(F)F)[C@@H]1C(=O)Nc1ccc(F)c(C(F)(F)F)c1` (stereo partly drawn) [Example 93, (2S,3R,7Z)-N-[4-fluoro-3-(trifluoromethyl)phe-nyl]-3-{5-[(3R)-3-hydroxybutyl]-2-methoxybenzamido}-7-(2,2,2-trifluoroethylidene)bi-cyclo[2.2.1]heptane-2-carboxamide] the figure was 248 nM.
Take `COc1ccc(/C=C/C(=O)N(C)CCO)cc1C(=O)N[C@H]1[C@@H](C(=O)Nc2ccc(F)c(C(F)(F)F)c2)[C@H]2CC[C@@H]1/C2=C\C1CC1` [Example 302, (1R,2S,3R,4R,7Z)-7-(cyclopropyl-methylidene)-N-[4-fluoro-3-(trifluoromethyl)phenyl]-3-{5-[(1E)-2-[(2-hydroxyethyl) (methyl)carbamoyl]eth-1-en-1-yl]-2-methoxybenzamido} bicyclo[2.2.1]heptane-2-carboxamide]: the EC50 turned out to be 16.3 nM.
For `COc1ccc(C(=O)N2CCN(CC(F)F)CC2)cc1C(=O)N[C@H]1[C@@H](C(=O)Nc2ccc(F)c(C(F)(F)F)c2)[C@H]2CC[C@@H]1/C2=C\C1CC1` [Example 255, (1R,2S,3R,4R,7Z)-7-(cyclopropyl-methylidene)-3-{5-[4-(2,2-difluoroethyl)piperazine-1-carbonyl]-2-methoxybenzamido}-N-[4-fluoro-3-heptane-2-(trifluoromethyl)phenyl]bicyclo [2.2.1] carboxamide] the value was 73.4 nM; for `COc1cc(F)c(O[C@H]2CC[C@](C)(C(=O)O)CC2)cc1C(=O)N[C@H]1[C@@H](C(=O)NCC2(C)CCC2)[C@H]2CC[C@@H]1/C2=C\C1CC1` [Example 377, (1R,4r)-4-(5-(((1R,2R,3S,4R,Z)-7-(cyclopropyl-methylene)-3-(((1-methylcyclobutyl)methyl)carbamoyl)bicyclo[2.2.1]heptan-2-yl)carbamoyl)-2-fluoro-4-methoxyphenoxy)-1-methylcyclohexane-1-carboxylic acid], 59 nM; for `COc1cc(C#CCO)ccc1C(=O)N[C@@H]1C2CCC(/C2=C/C(F)(F)F)[C@@H]1C(=O)Nc1ccc(F)c(C(F)(F)F)c1` (stereo partly drawn) [Example 74, (2S,3R,7Z)-N-[4-fluoro-3-(trifluoromethyl)phe-nyl]-3-[4-(3-hydroxyprop-1-yn-1-yl)-2-methoxybenzamido]-7-(2,2,2-trifluoroethylidene)bi-cyclo[2.2.1]heptane-2-carboxamide], 3550 nM.
The compound `COCCCc1ccc(OC)c(C(=O)NC2C3CCC(/C3=C/C(F)(F)F)[C@@H]2C(=O)Nc2ccc(F)c(C(F)(F)F)c2)c1` (stereo partly drawn) [Example 189, (2S,3R,7Z)-N-[4-fluoro-3-(trifluoromethyl)phe-nyl]-3-[2-methoxy-5-(3-methoxypropyl)benz-amido]-7-(2,2,2-trifluoroethylidene)bi-cyclo[2.2.1]heptane-2-carboxamide] returned an EC50 of 494 nM.
For `COc1ccc(C23CCC(C(C)(C)O)(CC2)CC3)cc1C(=O)N[C@H]1[C@@H](C(=O)Nc2ccc(F)c(C(F)(F)F)c2)[C@H]2CC[C@@H]1/C2=C\C1CC1` (single isomer, unassigned) [Example 274] the value was 99.8 nM; for `COc1ccc(CCCO)cc1C(=O)N[C@@H]1C2CCC(/C2=C/C2CC2)[C@@H]1C(=O)Nc1ccc(F)c(C(F)(F)F)c1` (stereo partly drawn) [Example 91, (2S,3R,7Z)-7-(cyclopropylmethyli-dene)-N-[4-fluoro-3-(trifluoromethyl)phe-nyl]-3-[5-(3-hydroxypropyl)-2-methoxybenzamido] bicyclo[2.2.1]heptane-2-carboxamide], 70 nM; for `COc1ccc(CCC(C)(C)O)cc1C(=O)NC1C2CCC(/C2=C/C2CCOCC2)[C@@H]1C(=O)Nc1ccc(F)c(C(F)(F)F)c1` (stereo partly drawn) [Example 166, (7Z)-N-[4-fluoro-3-(trifluoromethyl)phe-nyl]-3-[5-(3-hydroxy-3-methylbutyl)-2-methoxybenzamido]-7-[(oxan-4-yl)methylidene]bicy-clo[2.2.1]heptane-2-carboxamide], 129 nM.
For `COc1ccc(S(=O)(=O)N2CCN3C(=O)OCC3C2)cc1C(=O)N[C@H]1[C@@H](C(=O)Nc2ccc(F)c(C(F)(F)F)c2)[C@H]2CC[C@@H]1/C2=C\C(F)(F)F` (stereo partly drawn) [Example 220, (1R,2S,3R,4R,7Z)-N-[4-fluoro-3-(trifluoromethyl)phenyl]-3-[2-methoxy-5-({3-oxo-hexahydro-1H-[1,3]oxazolo[3,4-a]piperazin-7-yl}sulfonyl)benzamido]-7-(2,2,2-trifluoroethylidene) bicyclo[2.2.1] heptane-2-carboxamide] the value was 459 nM; for `COc1ccc(COCC2COC2)cc1C(=O)N[C@@H]1C2CCC(/C2=C/C2CC2)[C@@H]1C(=O)Nc1ccc(F)c(C(F)(F)F)c1` (stereo partly drawn) [Example 16, (2S,3R,7Z)-7-(cyclopropylmethyli-dene)-N-[4-fluoro-3-(trifluoromethyl)phe-nyl]-3-(2-methoxy-5-{[(oxetan-3-yl)methoxy]methyl}benzamido)bi-cyclo[2.2.1]hept-ane-2-carboxamide], 94 nM.
For `COc1ccc(S(=O)(=O)N2CCN(C(=O)OC(C)(C)C)[C@@H](CO)C2)cc1C(=O)N[C@H]1[C@@H](C(=O)Nc2ccc(F)c(C(F)(F)F)c2)[C@H]2CC[C@@H]1/C2=C\C(F)(F)F` [Example 226, tert-butyl (2R)-4-(3-{[(1R,2R,3S,4R,7Z)-3-{[4-fluoro-3-(trifluoromethyl)phenyl]carbamoyl}-7-(2,2,2-trifluoroethylidene)bicyclo[2.2.1]heptan-2-yl]carbamoyl}-4-methoxy-benzenesulfonyl)-2-(hydroxymethyl) piperazine-1-carboxylate] the value was 1730 nM; for `COc1ccc(CCO)cc1C(=O)NC1C2CCC(/C2=C/C(F)(F)F)[C@@H]1C(=O)Nc1ccc(F)c(C(F)(F)F)c1` (stereo partly drawn) [Example 55], 781 nM; for `COc1ccc(C2CC2CO)cc1C(=O)N[C@@H]1C2CCC(/C2=C/C(F)(F)F)[C@@H]1C(=O)Nc1ccc(F)c(C(F)(F)F)c1` (single isomer, unassigned) [Example 65], 250 nM.
With `COc1ccc(C2CCC2)cc1C(=O)N[C@H]1[C@@H](C(=O)Nc2ccc(F)c(C(F)(F)F)c2)[C@H]2CC[C@@H]1/C2=C\C(F)(F)F` [Example 176, (1R,2S,3R,4R,Z)-3-(5-cyclobutyl-2-methoxybenzamido)-N-(4-fluoro-3-(trifluoromethyl)phenyl)-7-(2,2,2-trifluoroethylidene) bicyclo[2.2.1]heptane-2-carboxamide], the EC50 worked out at 738 nM.
